Assay: Solubility of L-carnitine at 20° C.
Type: physicochemical
Conditions: in 100 g of solution
Source text: This applies, furthermore, without taking into account the amount of water which is required for dissolving magnesium aspartate hydrochloride.

In the case of C[N+](C)(C)CC(O)CC(=O)[O-] [L-carnitine, 3-hydroxy-4-(trimethylammonio)butyro-betaine], the “amount of L-carnitine that can be dissolved in 100 g of an aqueous solution which contains 51% by weight magnesium aspartate hydrochloride” value is reported as “up to 150 g”.

Reference: US7767712B2, “Storage-stable aqueous composition comprising a magnesium compound and L-carnitine” (Verla-Pharm Arzneimittelfabrik Apotheker H.J.v. Ehrlich …, priority 2006, dated 2010)
